In ChEMBL document CHEMBL3217544, “Evaluation of two cyclic di-peptides as inhibitors of CCL2 induced chemotaxis” (Medchemcomm, 2013):
Activity calls are given as the source filed them. No cut-off for these calls is given here.

Key:
[1] = molecular target: C-C motif chemokine 2 (Homo sapiens) (UniProt P13500); assay: Inhibition of CCL2 in human THP1 cells assessed as reduction of cell migration into TNFalpha/IFNgamma-stimulated HMEC-1 cells at 50 uM after 4 hrs; assay type: cell-based; details: THP-1
Sequence of C-C motif chemokine 2 (Homo sapiens) (P13500 24-99 limits assumed): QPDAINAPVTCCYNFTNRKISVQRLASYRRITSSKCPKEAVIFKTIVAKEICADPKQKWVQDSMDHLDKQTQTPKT

[2] = molecular target: C-C motif chemokine 2 (Homo sapiens) (UniProt P13500); assay: Inhibition of CCL2 in human THP1 cells assessed as reduction of cell migration at 100 uM after 3 hrs; assay type: cell-based; details: THP-1
[3] = molecular target: C-C motif chemokine 2 (Homo sapiens) (UniProt P13500); assay: Inhibition of CCL2 in human THP1 cells assessed as reduction of cell migration at 50 uM after 3 hrs; assay type: cell-based; details: THP-1
[4] = molecular target: C-C motif chemokine 2 (Homo sapiens) (UniProt P13500); assay: Inhibition of CCL2 in human THP1 cells assessed as effect on level of ERK1/2 phosphorylation at 50 uM after 5 mins by Western blot analysis; assay type: cell-based; details: THP-1
[5] = molecular target: C-C motif chemokine 2 (Homo sapiens) (UniProt P13500); assay: Inhibition of CCL2 in human PBMC assessed as reduction of cell adhesion to VCAM1-Fc at 50 uM by flow based adhesion assay
[6] = molecular target: T1, C-C motif chemokine 5 (Homo sapiens) (UniProt P13501); assay: Inhibition of CCL5 in human THP1 cells assessed as reduction of cell migration at 50 uM after 3 hrs; assay type: cell-based; details: THP-1
T1 sequence (whole entry): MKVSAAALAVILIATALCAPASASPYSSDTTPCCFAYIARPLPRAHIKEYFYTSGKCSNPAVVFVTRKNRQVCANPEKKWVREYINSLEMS

[7] = molecular target: C-C motif chemokine 7 (Homo sapiens) (UniProt P80098); assay: Inhibition of CCL7 in human THP1 cells assessed as reduction of cell migration at 50 uM after 3 hrs; assay type: cell-based; details: THP-1
Sequence of C-C motif chemokine 7 (Homo sapiens) (P80098 whole entry): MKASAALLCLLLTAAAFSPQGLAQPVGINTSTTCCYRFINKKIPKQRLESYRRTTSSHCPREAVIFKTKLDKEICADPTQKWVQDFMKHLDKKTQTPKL

[8] = molecular target: C-C motif chemokine 2 (Homo sapiens) (UniProt P13500); assay: Inhibition of CCL2 in human PBMC assessed as reduction of cell migration into TNFalpha/IFNgamma-stimulated HMEC-1 cells at 50 uM after 4 hrs; assay type: cell-based

inhibition [1]	inhibition [2]	inhibition [3]	inhibition [4]	inhibition [5]	inhibition [6]	inhibition [7]	inhibition [8]	SMILES
70%	Active	40%	inactive	35%	inactive	inactive	Active	O=C1N[C@@H](Cc2ccc(F)cc2)C(=O)N2CCC[C@@H]12
50%	Active	Active	inactive	–	–	–	Active	O=C1N[C@@H](Cc2ccccc2)C(=O)N2CCC[C@@H]12
